Reference: patent US11492385B2, “Long-acting co-agonists of the glucagon and GLP-1 receptors” (Merck Sharp & Dohme Corp., priority 2015, dated 2022)
“Also recorded” adds a separate entry of the source. Starred links: 1 amine or outer side, 2 acyl side, 3 side chain; linkers in the order of their positions; H or OH if unused. Non-standard residues stand in square brackets, D forms with d. Groups on a side chain read outwards from the residue. No end group written: not given here. *: point of attachment. Phe(4-CH2NH2) = NCc1ccc(C[C@H](N)C(=O)O)cc1; C16 diacid = O=C(O)CCCCCCCCCCCCCCC(=O)*; γGlu = O=C(O)[C@H](CCC(=O)[*:2])N[*:1]; Met(O2) = CS(=O)(=O)CC[C@H](N)C(=O)O; αMeD = C[C@](N)(CC(=O)O)C(=O)O; AEEA = NCCOCCOCC(=O)O; Aib = CC(C)(N)C(=O)O

Key:
[1] = Duration of action in DIO mice: blood glucose after a single sc dose; type: in vivo; details: single sc dose at day zero, compared to liraglutide and semaglutide (FIG. 1C)
Experimental: (§1) In this example, the duration of action of several of the peptides or co-agonist peptides was evaluated in diet-induced obese (DIO) mice. The duration of action of the peptides were compared to the duration of action of Semaglutide (sema) and Liraglutide (lira). The peptides tested were SEQ ID NOs: 2, 19, 28, 29, and 33 (Seq 2, Seq 19, Seq 28, Seq 29, and Seq 33, respectively).

[2] = Duration of action in DIO mice: body weight after a single sc dose; type: in vivo; details: for change in body weight over four days: single sc dose at day zero, compared to liraglutide and semaglutide (FIG. 1A)
Experimental: as §1

[3] = Duration of action in DIO mice: food intake after a single sc dose; type: in vivo; details: for change in food intake over four days: single sc dose at day zero, compared to liraglutide and semaglutide (FIG. 1B)
Experimental: as §1

[4] = mouse, in vivo, sc
Experimental: DIO mice were divided into groups of eight mice per group and the initial average body weight, food intake and basal glucose of each group were matched. Each group of mice was subcutaneously (sc) injected with a single dose of peptide or vehicle control. The administered doses varied between 3 and 300 nmol/kg. […] A separate set of mice were treated with same dose of each peptide. Serial blood was taken at 5 hours, 24 hours, 48 hours and 72 hours post sc injection to measure drug exposure.

HXQGTFTSDpAF( ? -γE-C18—OH)SKYLDARAAQDFVQWL2DT—NH2 (H[Aib]QGTFTSD[Phe(4-CH2NH2)]([AEEA-AEEA-γGlu-C18‑OH])SKYLDARAAQDFVQWL[Met(O2)]DT-NH2) [SEQ ID NO: 28]
blood glucose lowering effect over four days [1]: greater reduction in blood glucose | change in body weight over four days [2]: more pronounced and sustained change in body weight | change in food intake over four days [3]: more sustained reduction in food intake

HXQGTFTSDYSKYLDARAAK( ? -γE-C18—OH)DFVQWL2αMDT—NH2 (H[Aib]QGTFTSDYSKYLDARAAK([AEEA-AEEA-γGlu-C18‑OH])DFVQWL[Met(O2)][αMeD]T-NH2) [SEQ ID NO: 33]
PK over three days [4]: more prolonged PK | blood glucose lowering effect over four days ([1]; listed as Seq 33): greater reduction in blood glucose; also recorded: particularly effective | change in body weight over four days ([2]; listed as Seq 33): more pronounced and sustained change in body weight; also recorded: particularly pronounced | change in food intake over four days ([3]; listed as Seq 33): more sustained reduction in food intake; also recorded: particularly evident

HXQGTFTSDYSKYLDARAAK( ? -γE-C16—OH)DFVQWL2DT—NH2 (H[Aib]QGTFTSDYSKYLDARAAK([AEEA-AEEA-γGlu-C16 diacid])DFVQWL[Met(O2)]DT-NH2; N-terminus assumed; SMILES CC(C)C[C@H](NC(=O)[C@H](Cc1ccc(O)cc1)NC(=O)[C@H](CCCCN)NC(=O)[C@H](CO)NC(=O)[C@H](Cc1ccc(O)cc1)NC(=O)[C@H](CC(=O)O)NC(=O)[C@H](CO)NC(=O)[C@@H](NC(=O)[C@H](Cc1ccccc1)NC(=O)[C@@H](NC(=O)CNC(=O)[C@H](CCC(N)=O)NC(=O)C(C)(C)NC(=O)[C@@H](N)Cc1c[nH]cn1)[C@@H](C)O)[C@@H](C)O)C(=O)N[C@@H](CC(=O)O)C(=O)N[C@@H](C)C(=O)N[C@@H](CCCNC(=N)N)C(=O)N[C@@H](C)C(=O)N[C@@H](C)C(=O)N[C@@H](CCCCNC(=O)COCCOCCNC(=O)COCCOCCNC(=O)CC[C@H](NC(=O)CCCCCCCCCCCCCCC(=O)O)C(=O)O)C(=O)N[C@@H](CC(=O)O)C(=O)N[C@@H](Cc1ccccc1)C(=O)N[C@H](C(=O)N[C@@H](CCC(N)=O)C(=O)N[C@@H](Cc1c[nH]c2ccccc12)C(=O)N[C@@H](CC(C)C)C(=O)N[C@@H](CCS(C)(=O)=O)C(=O)N[C@@H](CC(=O)O)C(=O)N[C@H](C(N)=O)[C@@H](C)O)C(C)C) [SEQ ID NO: 19]
PK over three days [4]: more prolonged PK | blood glucose lowering effect over four days [1]: greater reduction in blood glucose | change in body weight over eight days ([2]; single dose at 20 nmol/kg or 60 nmol/kg at day zero, compared to liraglutide and semaglutide (FIG. 3A)): more pronounced and sustained change in body weight | change in body weight over four days [2]: more pronounced and sustained change in body weight | change in food intake over eight days ([3]; single dose at 20 nmol/kg or 60 nmol/kg at day zero, compared to liraglutide and semaglutide (FIG. 3B)): comparable to liraglutide or semiglutide in reducing food intake | change in food intake over four days [3]: more sustained reduction in food intake

HXQGTFTSDYSKYLDARAAK( ? -γE-C18—OH)DFVQWL2DT—NH2 (H[Aib]QGTFTSDYSKYLDARAAK([AEEA-AEEA-γGlu-C18‑OH])DFVQWL[Met(O2)]DT-NH2) [SEQ ID NO: 29]
blood glucose lowering effect over four days ([1]; listed as Seq 29): greater reduction in blood glucose | blood glucose lowering effect over four days ([1]; listed as Seq29): particularly effective | change in body weight over four days ([2]; listed as Seq 29): more pronounced and sustained change in body weight; also recorded: particularly pronounced | change in food intake over four days ([3]; listed as Seq 29): more sustained reduction in food intake; also recorded: particularly evident
